According to the supplement of paper PMC10307832:

What was measured:
Assay in all cases: relative viability (nuclei count vs DMSO), 5 days (fraction); higher = more cells survive
[1] = compound: CNC(=O)c1ccccc1Sc1ccc2c(/C=C/c3ccccn3)n[nH]c2c1 [Axitinib] + Cc1nc(Nc2ncc(C(=O)Nc3c(C)cccc3Cl)s2)cc(N2CCN(CCO)CC2)n1 [Dasatinib] (partner 0.075 µM)
In short: (§1)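 Lung cancer cell lines in 1536-well plates got either a single drug or a fixed anchor-drug dose together with five library-drug doses (not always all listed) in √10 steps, by pin tool, on the day after seeding. Nuclei were counted after 5 days, and relative viability is the treated-to-vehicle ratio of nuclei counts. Values are medians of duplicate plates.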

[2] = compound: CC1=CC=C(C=C1)C(=O)CN2C3=C(CCCC3)SC2=N [Pifithrin_alpha] + CC(C)C[C@H](NC(=O)[C@H](Cc1ccccc1)NC(=O)c1cnccn1)B(O)O [Bortezomib] (partner 0.002 µM)
In short: as §1

[3] = compound: CNC(=O)c1ccccc1Sc1ccc2c(/C=C/c3ccccn3)n[nH]c2c1 [Axitinib] + C[C@@H](Oc1cc(-c2cnn(C3CCNCC3)c2)cnc1N)c1c(Cl)ccc(F)c1Cl [Crizotinib] (partner 1 µM)
In short: as §1

[4] = compound: CNC(=O)c1ccccc1Sc1ccc2c(/C=C/c3ccccn3)n[nH]c2c1 [Axitinib] + CC(C)C[C@H](NC(=O)[C@H](Cc1ccccc1)NC(=O)c1cnccn1)B(O)O [Bortezomib] (partner 0.002 µM)
In short: as §1

Row | Cell Line | relative viability ([1]; first compound 0.005 µM) | relative viability ([1]; first compound 0.01581 µM) | relative viability ([1]; first compound 0.05 µM) | relative viability ([1]; first compound 0.1581 µM) | relative viability ([1]; first compound 0.5 µM) | relative viability ([2]; first compound 1 µM) | relative viability ([2]; first compound 3.162 µM) | relative viability ([2]; first compound 10 µM) | relative viability ([2]; first compound 31.62 µM) | relative viability ([2]; first compound 100 µM) | relative viability ([3]; first compound 0.005 µM) | relative viability ([3]; first compound 0.01581 µM) | relative viability ([3]; first compound 0.05 µM) | relative viability ([3]; first compound 0.1581 µM) | relative viability ([3]; first compound 0.5 µM) | relative viability ([4]; first compound 0.005 µM) | relative viability ([4]; first compound 0.01581 µM) | relative viability ([4]; first compound 0.05 µM) | relative viability ([4]; first compound 0.1581 µM) | relative viability ([4]; first compound 0.5 µM)
1 | NCI-H1792 | 0.763 | 0.749 | 0.618 | 0.761 | 0.838 | 0.719 | 0.847 | 0.666 | 0.582 | 0.795 | 1.02 | 0.988 | 0.987 | 0.962 | 0.955 | 1 | 0.982 | 0.952 | 0.953 | 0.894
2 | NCI-H1666 | 0.836 | 0.838 | 0.825 | 0.88 | 0.829 | 0.635 | 0.472 | 0.465 | 0.404 | 0.28 | 1.29 | 0.97 | 1.12 | 0.931 | 1.14 | 0.938 | 0.881 | 0.97 | 0.922 | 0.92
3 | NCI-H1563 | 0.482 | 0.456 | 0.457 | 0.449 | 0.426 | 0.732 | 0.697 | 0.755 | 0.733 | 0.78 | 0.957 | 0.791 | 0.877 | 0.833 | 0.907 | 0.908 | 0.827 | 0.846 | 0.876 | 0.763
4 | NCI-H1993 | 0.609 | 0.708 | 0.735 | 0.712 | 0.52 |  | 0.815 | 0.861 | 0.887 | 0.892 | 1.01 | 0.983 | 0.873 | 0.96 | 0.858 | 1.21 | 1.3 | 1.14 | 1.18 | 0.913
5 | CAL-12T | 0.603 | 0.448 | 0.367 | 0.38 | 0.405 | 0.962 | 1.09 | 1.02 | 0.666 | 0.809 | 0.675 | 0.75 | 0.529 | 0.834 | 0.537 | 1.03 | 0.978 | 0.955 | 1.11 | 0.965
6 | NCI-H460 | 0.429 | 0.515 | 0.607 | 0.49 | 0.441 | 1.51 | 1.14 | 0.661 |  | 0.438 | 1.05 | 0.876 | 0.915 | 0.816 | 1.13 | 1.09 | 1.07 | 0.975 | 0.96 | 1.37
7 | LC-2-ad | 0.526 | 0.572 | 0.425 | 0.546 | 0.486 | 0.892 | 1.04 | 0.976 | 0.767 | 0.768 | 0.404 | 0.483 | 0.496 | 0.424 | 0.597 | 1.1 | 1.06 | 0.93 | 1.04 | 1.16
8 | HCC-78 | 0.328 | 0.288 | 0.534 | 0.387 | 0.329 | 0.415 | 0.394 | 0.472 | 0.418 | 0.477 | 0.345 | 0.35 | 0.301 | 0.338 | 0.375 | 0.643 | 0.491 | 0.305 | 0.499 | 0.566
